From ChEMBL document CHEMBL4190166 (Medchemcomm, 2016) come the findings set out here.

The IC50 is the concentration at which inhibition is half-maximal.

In assay [1] the target is von Hippel-Lindau disease tumor suppressor/Steroid hormone receptor ERR1 (Homo sapiens, UniProt P11474+P40337). Description: Proteolysis targeting chimera activity in human MCF7 cells assessed as induction of VHL-mediated delivery of ERRalpha for protein degradation by proteasome by measuring drug level causing 50% substrate depletion incubated for 24 hrs by Western blot method. Type of assay: cell-based. (Immunoblotting shows a protein as a band on a membrane.)

Another assay has as its system Heart. Description: In vivo induction of ERRalpha degradation in CD-1 mouse heart at 100 mg/kg, ip every 8 hrs measured 5 hrs post last dose by LC/MS analysis relative to control. Type of assay: functional.
The next assay relates to Kidney. Kind of assay: In vivo induction of ERRalpha degradation in CD-1 mouse kidney at 100 mg/kg, ip every 8 hrs measured 5 hrs post last dose by LC/MS analysis relative to control. Type of assay: functional.
A further assay has as its system MDA-MB-231. Description: In vivo induction of ERRalpha degradation in human MDA-MB-231 cells xenografted in […] mouse at 100 mg/kg, ip every 8 hrs measured 5 hrs post last dose by LC/MS analysis relative to control. Type of assay: functional.
Assay [2] deals with Protein cereblon/Tyrosine-protein kinase ABL1 (Homo sapiens) (UniProt P00519+Q96SW2). Kind of assay: Proteolysis targeting chimera activity in human K562 cells assessed as induction of cereblon-mediated delivery of ABL for protein degradation by proteasome at 1 uM after 24 hrs by immuno blot analysis relative to control. Type of assay: cell-based.
Sequence of Protein cereblon/Tyrosine-protein kinase ABL1 (Homo sapiens) (P00519 whole entry, looked up): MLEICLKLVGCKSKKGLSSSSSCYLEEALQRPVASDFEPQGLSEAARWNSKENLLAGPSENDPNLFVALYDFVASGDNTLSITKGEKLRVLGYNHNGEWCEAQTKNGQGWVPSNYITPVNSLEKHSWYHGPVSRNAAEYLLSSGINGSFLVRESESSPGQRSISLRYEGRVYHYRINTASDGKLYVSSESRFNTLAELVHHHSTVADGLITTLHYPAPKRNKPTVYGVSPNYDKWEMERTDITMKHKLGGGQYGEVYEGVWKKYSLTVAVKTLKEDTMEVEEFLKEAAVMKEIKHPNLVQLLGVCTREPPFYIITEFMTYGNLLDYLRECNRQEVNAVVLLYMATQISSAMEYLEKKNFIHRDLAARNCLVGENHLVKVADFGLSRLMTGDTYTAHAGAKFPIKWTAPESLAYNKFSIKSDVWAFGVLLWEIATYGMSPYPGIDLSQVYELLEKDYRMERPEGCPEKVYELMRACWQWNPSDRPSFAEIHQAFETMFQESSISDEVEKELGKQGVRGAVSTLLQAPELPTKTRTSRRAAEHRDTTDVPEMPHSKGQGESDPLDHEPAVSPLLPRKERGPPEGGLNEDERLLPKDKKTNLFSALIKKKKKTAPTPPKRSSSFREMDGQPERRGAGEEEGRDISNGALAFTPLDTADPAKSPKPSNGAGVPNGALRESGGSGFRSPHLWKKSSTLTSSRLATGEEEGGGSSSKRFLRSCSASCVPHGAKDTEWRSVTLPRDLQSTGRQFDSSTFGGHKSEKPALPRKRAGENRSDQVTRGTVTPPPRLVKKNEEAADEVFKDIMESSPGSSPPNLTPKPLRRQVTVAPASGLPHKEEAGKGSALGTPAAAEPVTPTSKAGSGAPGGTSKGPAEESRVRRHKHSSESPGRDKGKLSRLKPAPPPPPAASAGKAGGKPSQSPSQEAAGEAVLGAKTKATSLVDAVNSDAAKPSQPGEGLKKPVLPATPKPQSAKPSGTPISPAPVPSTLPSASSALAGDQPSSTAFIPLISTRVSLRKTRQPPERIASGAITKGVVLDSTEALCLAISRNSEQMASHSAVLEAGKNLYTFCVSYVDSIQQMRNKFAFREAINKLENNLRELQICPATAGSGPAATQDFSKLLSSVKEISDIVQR
Sequence of Protein cereblon/Tyrosine-protein kinase ABL1 (Homo sapiens) (Q96SW2 whole entry, looked up): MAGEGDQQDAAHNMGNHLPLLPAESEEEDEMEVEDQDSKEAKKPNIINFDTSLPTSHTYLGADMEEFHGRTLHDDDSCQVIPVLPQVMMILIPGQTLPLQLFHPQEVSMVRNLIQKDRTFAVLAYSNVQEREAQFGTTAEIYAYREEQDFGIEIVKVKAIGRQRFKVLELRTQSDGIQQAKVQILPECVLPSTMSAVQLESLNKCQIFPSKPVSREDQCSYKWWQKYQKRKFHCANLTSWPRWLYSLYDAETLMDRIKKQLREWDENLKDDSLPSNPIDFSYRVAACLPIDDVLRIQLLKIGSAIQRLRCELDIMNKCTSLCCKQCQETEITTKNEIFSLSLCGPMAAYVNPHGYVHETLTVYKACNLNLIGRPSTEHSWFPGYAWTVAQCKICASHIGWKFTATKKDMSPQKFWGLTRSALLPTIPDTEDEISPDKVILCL
The target in assay [3] is Protein cereblon/Tyrosine-protein kinase ABL1/Breakpoint cluster region protein (Homo sapiens) (UniProt P00519+P11274+Q96SW2). Description: Proteolysis targeting chimera activity in human K562 cells assessed as induction of cereblon-mediated delivery of BCR-ABL for protein degradation by proteasome at 1 uM after 24 hrs by immuno blot analysis relative to control. Type of assay: cell-based.
Sequence of Protein cereblon/Tyrosine-protein kinase ABL1/Breakpoint cluster region protein (Homo sapiens) (P00519 whole entry, looked up): as the sequence (P00519 whole entry, looked up) above
Sequence of Protein cereblon/Tyrosine-protein kinase ABL1/Breakpoint cluster region protein (Homo sapiens) (P11274 whole entry, looked up): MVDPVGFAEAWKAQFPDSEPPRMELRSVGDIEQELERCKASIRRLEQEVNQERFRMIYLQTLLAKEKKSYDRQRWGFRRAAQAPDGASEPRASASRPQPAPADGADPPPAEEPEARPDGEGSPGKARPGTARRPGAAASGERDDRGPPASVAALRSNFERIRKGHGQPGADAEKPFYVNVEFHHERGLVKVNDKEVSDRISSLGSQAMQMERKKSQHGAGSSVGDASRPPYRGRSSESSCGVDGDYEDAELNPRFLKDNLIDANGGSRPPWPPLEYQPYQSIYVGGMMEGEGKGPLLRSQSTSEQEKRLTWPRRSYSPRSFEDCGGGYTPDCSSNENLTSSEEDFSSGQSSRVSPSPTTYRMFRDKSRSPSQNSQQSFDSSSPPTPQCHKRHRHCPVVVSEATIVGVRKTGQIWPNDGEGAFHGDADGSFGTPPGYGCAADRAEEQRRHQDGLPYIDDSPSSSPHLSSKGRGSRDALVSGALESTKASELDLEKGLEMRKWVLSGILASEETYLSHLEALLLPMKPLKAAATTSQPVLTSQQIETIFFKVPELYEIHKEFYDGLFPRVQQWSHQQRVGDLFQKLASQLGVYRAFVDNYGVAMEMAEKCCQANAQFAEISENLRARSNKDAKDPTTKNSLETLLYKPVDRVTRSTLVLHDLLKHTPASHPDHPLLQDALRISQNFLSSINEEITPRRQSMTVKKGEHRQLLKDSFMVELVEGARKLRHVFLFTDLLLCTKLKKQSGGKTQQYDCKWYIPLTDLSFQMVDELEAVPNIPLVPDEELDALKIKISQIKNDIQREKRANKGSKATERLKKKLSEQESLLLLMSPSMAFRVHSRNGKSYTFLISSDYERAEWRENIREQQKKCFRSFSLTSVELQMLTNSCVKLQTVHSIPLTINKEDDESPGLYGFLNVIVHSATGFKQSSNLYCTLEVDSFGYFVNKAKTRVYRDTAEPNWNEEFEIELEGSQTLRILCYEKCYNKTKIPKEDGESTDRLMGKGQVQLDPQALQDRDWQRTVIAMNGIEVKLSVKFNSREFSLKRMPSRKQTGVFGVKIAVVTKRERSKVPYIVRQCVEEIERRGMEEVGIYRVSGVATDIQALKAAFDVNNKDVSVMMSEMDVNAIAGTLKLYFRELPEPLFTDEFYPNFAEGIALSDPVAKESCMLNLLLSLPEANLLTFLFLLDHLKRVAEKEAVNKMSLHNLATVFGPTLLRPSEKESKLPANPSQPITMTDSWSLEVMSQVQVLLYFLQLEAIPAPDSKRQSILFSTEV
Sequence of Protein cereblon/Tyrosine-protein kinase ABL1/Breakpoint cluster region protein (Homo sapiens) (Q96SW2 whole entry, looked up): as the sequence (Q96SW2 whole entry, looked up) above

The target in assay [4] is von Hippel-Lindau disease tumor suppressor/Bromodomain-containing protein 2 (Homo sapiens, UniProt P25440+P40337). Description: Proteolysis targeting chimera activity in human 22Rv1 cells assessed as induction of VHL-mediated delivery of BRD2 for protein degradation by proteasome by measuring drug level causing 50% substrate depletion incubated for 16 hrs by Western blot method. Type of assay: cell-based.

In a further assay the test system is VCaP. Description: Antitumor activity against human VCaP cells xenografted in SCID mouse assessed as tumor growth inhibition at 10 mg/kg, sc administered every 3 days for 16 days relative to control. Type of assay: functional. The conditions noted are these: read-out: TGI. (A xenograft is tissue or cells of one species grown in another, often human tumour cells in immunodeficient mice.)

Assay [5] deals with T1, Protein cereblon/Bromodomain-containing protein 4 (Homo sapiens, UniProt O60885+Q96SW2). Description: Proteolysis targeting chimera activity in human MV4-11 cells assessed as induction of cereblon-mediated delivery of BRD4 for protein degradation by proteasome at 100 nM incubated for 18 hrs by immuno blot analysis. Type of assay: cell-based.
T1 sequence (Q96SW2 whole entry, looked up, other chains not shown): as the sequence (Q96SW2 whole entry, looked up) above
The target in assay [6] is Protein cereblon/Peptidyl-prolyl cis-trans isomerase FKBP1A (Homo sapiens, UniProt P62942+Q96SW2). Description: Proteolysis targeting chimera activity in human MV4-11 cells assessed as induction of cereblon-mediated delivery of FKBP12 for protein degradation by proteasome incubated for 18 hrs by immuno blot analysis. Type of assay: cell-based.
Assay [7] deals with T1, Protein cereblon/Bromodomain-containing protein 4. Kind of assay: Proteolysis targeting chimera activity in human BL cells assessed as induction of cereblon-mediated delivery of BRD4 for protein degradation by proteasome by immuno blot analysis. Type of assay: cell-based.

For the compound `COc1cc(/C=C2\SC(=O)N(CCOCCC(=O)N[C@H](C(=O)N3C[C@H](O)C[C@H]3C(=O)NCc3ccc(-c4scnc4C)cc3)C(C)(C)C)C2=O)ccc1Oc1ccc(C#N)cc1C(F)(F)F`, the 50% inhibitory concentration (IC50) in assay [1] amounted to 100 nM. Besides, the Activity with Heart, in the assay on Kidney and with MDA-MB-231 was 40% in each case.

With `Cc1nc(Nc2ncc(C(=O)Nc3c(C)cccc3Cl)s2)cc(N2CCN(CCCCCCOCCOCCOCCCCCc3cccc4c3C(=O)N(C3CCC(=O)NC3=O)C4=O)CC2)n1` (stereo not drawn), the values for the Imax in assay [2] and in assay [3] were greater than 85% and greater than 60%, respectively.

In the case of `Cc1ncsc1-c1ccc([C@H](C)NC(=O)[C@@H]2C[C@@H](O)CN2C(=O)[C@@H](NC(=O)COCCCOCCNC(=O)C[C@@H]2N=C(c3ccc(Cl)cc3)c3c(sc(C)c3C)-n3c(C)nnc32)C(C)(C)C)cc1`, the IC50 in assay [4] is less than 5 nM. Further, the inhibition in vivo at 10 mg/kg in the assay on VCaP is 60%.

For `COc1cc(Nc2c(C#N)cnc3cc(OCCCN4CCN(CCCCCCOCCOCCOCCCCCc5cccc6c5C(=O)N(C5CCC(=O)NC5=O)C6=O)CC4)c(OC)cc23)c(Cl)cc1Cl` (stereo not drawn), the Imax in assay [2] was 90%; in assay [3] it was 80%.

`Cc1sc2c(c1C)C(c1ccc(Cl)cc1)=C[C@@H](CC(=O)NCCCCNC(=O)COc1cccc3c1C(=O)N(C1CCC(=O)NC1=O)C3=O)c1nnc(C)n1-2` (stereo partly drawn): the Imax in [5] is greater than 85%.

Take `CCC(C)(C)C(=O)C(=O)N1CCCC[C@H]1C(=O)O[C@H](CCc1ccc(OC)c(OC)c1)c1cccc(NC(=O)CCC(=O)NCCNC(=O)COc2cccc3c2C(=O)N(C2CCC(=O)NC2=O)C3=O)c1` (stereo partly drawn): the IC50 in assay [6] worked out at 10 nM.

As to `Cc1sc2c(c1C)C(c1ccc(Cl)cc1)=C[C@@H](CC(=O)Nc1ccc(OCCOCCOCCOCCNc3cccc4c3C(=O)N(C3CCC(=O)NC3=O)C4=O)cc1)c1nnc(C)n1-2` (stereo partly drawn), the IC50 in [7] is less than 1 nM.
